{
  "source": "patent US8062633B2",
  "about": "“Surface sanitizer for the food industry based on three new lactic acid bacteria that have antagonistic action against Listeria monocytogenes, the microorganism that causes listeriosis in humans” (Universidad Austral de Chile, priority 2009, dated 2011)",
  "origin": "cited, not measured here",
  "key": {"L. monocytogenes": {"tested_on": "L. monocytogenes", "conditions": "48 h of incubation"}, "[1]": {"tested_on": "Listeria monocytogenes Scott A", "conditions": "tofu stored at 10° C."}},
  "data": [
    {"substance": "nisin", "values": [
      {"measurement": "regrowth of L. monocytogenes in culture broth", "setting": "L. monocytogenes", "result": "developed resistance and grew again after 48 h"},
      {"measurement": "development of L. monocytogenes in tofu", "setting": "[1]", "result": "Listeria started to grow again from the second day onward"}
    ]}
  ]
}
